Values quoted from earlier work as cited in US20240317750A1, “An Efficient Process for the Synthesis of Methylliberine and Polymorphs Thereof” (Fertis India Pvt. Ltd., priority 2021, published 2024).

Details: background statement, available toxicological information; no test described

In the case of `COc1nc2c(c(=O)n1C)n(C)c(=O)n2C` [methylliberine, 2-Methoxy-1,7,9-trimethyl-7,9-dihydro-1H-purine-6,8-dione], the genotoxicity is listed as “does not cause any genotoxicity”.
